The test system of one data set is Puccinia recondita. Description: Puccinia Recondita Test (Cereal)/Seed Treatment. In kind it is in vivo. The conditions noted are these: 50 g/100 kg of seed; seed treatment; evaluation about 7 days after inoculation. On the procedure: Puccinia Recondita Test (Cereal)/Seed Treatment
The active compounds are applied as liquid dressings, 1 part by weight of the active compound being mixed with 10 parts by weight of a solvent. For each concentration tested, the appropriate volume from the mixture is pipetted. For the dressing, the preparation is pipetted onto the seed and the seed is shaken in a closed glass bottle for 3 minutes. At 3×12 grains, the seed is sown into a soil/sand mixture in pots. The pots are initially incubated at 5° C. in the dark for 14 days and then cultivated in a greenhouse at a temperature of about 10° C. and 15 hours of light per day for a further 14 days. The plants are then sprayed with a spore suspension of Puccinia recondita and subsequently placed in an incubation cabin at 18° C. and 100% relative atmospheric humidity for 48 hours. The plants are then placed in a greenhouse at a temperature of about 18° C. and a relative atmospheric humidity of 80%. Evaluation is carried out about 7 days after the inoculation. 0% means an efficacy which corresponds to that of the control, whereas an efficacy of 100% means that no infection is observed.

The nature of data set [1]: logP determination by HPLC on a reversed-phase column (C 18), EEC Directive 79/831 Annex V.A8. Format: physicochemical. The procedure:
The stated logP values were determined in accordance with EEC Directive 79/831 Annex V.A8 by HPLC (high performance liquid chromatography) on a reversed-phase column (C 18). Temperature: 43° C.

Data set [2] has as its system green peach aphid (Myzus persicae). Description: Myzus test (spray treatment). In kind it is in vivo. The conditions noted are these: active compound concentration 500 ppm, after 5 days, chinese cabbage leaf discs. The procedure:
[table] To produce a suitable preparation of active compound, 1 part by weight of active compound is mixed with the stated amounts of solvents and emulsifier, and the concentrate is diluted with emulsifier-containing water to the desired concentration. Discs of chinese cabbage (Brassica pekinensis) which are infested by all stages of the green peach aphid (Myzus persicae) are sprayed with an active compound preparation of the desired concentration. After the desired period of time, the effect in % is determined. 100% means that all aphids have been killed; 0% means that none of the aphids have been killed.

In data set [3] the test system is larvae of the mustard beetle (Phaedon cochleariae). The experiment in a line: Phaedon test (spray treatment). In kind it is in vivo. The note with it: active compound concentration 500 ppm, after 7 days, chinese cabbage leaf discs. The procedure:
[table] To produce a suitable preparation of active compound, 1 part by weight of active compound is mixed with the stated amounts of solvents and emulsifier, and the concentrate is diluted with emulsifier-containing water to the desired concentration. Discs of chinese cabbage (Brassica pekinensis) are sprayed with an active compound preparation of the desired concentration and, after drying, populated with larvae of the mustard beetle (Phaedon cochleariae). After the desired period of time, the effect in % is determined. 100% means that all beetle larvae have been killed; 0% means that none of the beetle larvae have been killed.

Each structure is given as a SMILES string.

We go through three compounds from patent publication US20100022559A1, “BISOXIMES AS FUNGICIDES” (BAYER CROPSCIENCE AG, priority 2006, published 2010).

As to `CC(=NOCC(C)(C)CON=C(C)c1cccc(C)n1)c1cccc(C)n1` (single isomer, unassigned) [Compound 141], the efficacy in the data set with Puccinia recondita was not below 70%. For the same compound, the logP in data set [1] (method marker [b], isomer A / isomer B / isomer mixture as noted in the cell) is 4.40^[b] (isomer A).
On to `CC(=NOCC1(CON=C(C)c2cccc(C)n2)CC(C(C)(C)C)=NO1)c1cccc(C)n1` (stereo not drawn) [Compound 600], for which the efficacy in data set [2] is on record as 100%. Besides, the logP in data set [1] (method marked [b] in Table 1) is 3.85^[b].
In data set [3], `CCCC1=NOC(CON=C(CCC)c2cccc(C)n2)(CON=C(CCC)c2cccc(C)n2)C1` (stereo not drawn) [Compound 618] had an efficacy of 100%. Besides, the logP in data set [1] (method marked [b] in Table 1) is 5.71^[b].
